Results reported in US9029376B2, “Small molecule inhibitors for the treatment or prevention of dengue virus infection” (Siga Technologies, Inc., priority 2008, dated 2015).
Read-outs that look alike come from different tables or passages of the source.

Columns and labels:
[1] = tested on: Dengue-2 (Strain New Guinea C); assay: Dengue-2 viral yield assay in Vero cells; type: cell-based; conditions: Dengue virus, read-out: Activity (anti-dengue 2 viral activity, EC50)
Experimental: Compounds that were active in the primary screen were tested for activity in viral yield assays. […] Vero cells in 12-well plates were infected with dengue-2 virus at a multiplicity of infection (MOI) of 0.1, treated with compound (or DMSO as a control), incubated at 37° C., harvested 48 hours post infection and titered on Vero cells as described above. The EC50 was calculated through ExcelFit. Those compounds with activity below 1 μM are indicated with “A”, those with activity between 1 and 10 μM are indicated with “B”, and those with activity between 10 and 25 μM with “C”.

[2] = tested on: all four serotypes of dengue; assay: Yield assay against each serotype of dengue virus in vero cells; type: cell-based; conditions: FIG. 1
Experimental: Initially, the chemical structures of the hit compounds were examined for chemical tractability. […] Hits that passed this medicinal chemistry filter were evaluated for their potency. Compound potency was determined by evaluating inhibitory activity across a broad range of concentrations. Nonlinear regression was used to generate best-fit inhibition curves and to calculate the 50% effective concentration (EC50). The selectivity or specificity of a given compound is typically expressed as a ratio of its cytotoxicity to its biological effect. A cell proliferation assay is used to calculate a 50% cytotoxicity concentration (CC50); the ratio of this value to the EC50 is referred to as the therapeutic index (T.I.=CC50/EC50). Two types of assays have been used to determine cytotoxicity, both of which are standard methods for quantitating the reductase activity produced in metabolically active cells (30). One is a colorimetric method that measures the reduction of 3-(4,5-dimethylthiazol-2-yl)-2,5-diphenyl-tetrazolium bromide (MTT), and the other uses fluorimetry to measure the reduction of resazurin (Alamar Blue). […] Verification that these compounds act against each of the four serotypes of dengue was done with yield assays carried out at several drug concentrations, and the titer determined for each. […]

[3] = Cytotoxicity (cell proliferation assay, MTT or Alamar Blue); type: cell-based; conditions: flag printed in the Activity column of Table 1
Experimental: Initially, the chemical structures of the hit compounds were examined for chemical tractability. […] Hits that passed this medicinal chemistry filter were evaluated for their potency. Compound potency was determined by evaluating inhibitory activity across a broad range of concentrations. Nonlinear regression was used to generate best-fit inhibition curves and to calculate the 50% effective concentration (EC50). The selectivity or specificity of a given compound is typically expressed as a ratio of its cytotoxicity to its biological effect. A cell proliferation assay is used to calculate a 50% cytotoxicity concentration (CC50); the ratio of this value to the EC50 is referred to as the therapeutic index (T.I.=CC50/EC50). Two types of assays have been used to determine cytotoxicity, both of which are standard methods for quantitating the reductase activity produced in metabolically active cells (30). One is a colorimetric method that measures the reduction of 3-(4,5-dimethylthiazol-2-yl)-2,5-diphenyl-tetrazolium bromide (MTT), and the other uses fluorimetry to measure the reduction of resazurin (Alamar Blue). […] Verification that these compounds act against each of the four serotypes of dengue was done with yield assays carried out at several drug concentrations, and the titer determined for each.

dengue [4] = conditions: cited from earlier work
dengue [5] = conditions: mouse model; cited from earlier work
[6] = Dengue-2 strain New Guinea C, Vero cells, MOI 0.1, harvested 48 hours post infection, viral yield

Row | Structure (SMILES) | EC50 ([1]; Vero, 48 h) | EC50 [1, 6] | further results
1 | NC(=O)C1(N2CCCCC2)CCN(C(=O)CSc2nc3ccccc3o2)CC1 [Compound 3, 1′-[2-(Benzooxazol-2-ylsulfanyl)-acetyl]-[1,4′]bipiperidinyl-4′-carboxylic acid amide] | < 1 µM |  | activity against dengue serotypes [2]: activity against all four serotypes of dengue
2 | O=C1CC(Sc2nc3ccccc3s2)C(=O)N1Cc1ccccc1 (centres unmarked) [Compound 4, 3-(Benzothiazol-2-ylsulfanyl)-1-benzyl-pyrrolidine-2,5-dione] |  | < 1 µM | toxic (flag beside activity class) [3]: toxic
3 | COc1ccccc1C(=O)C1CCCN(C(=O)CSc2nc3cc(C)ccc3[nH]2)C1 (centres unmarked) [Compound 12, 1-[3-(2-Methoxy-benzoyl)-piperidin-1-yl]-2-(5-methyl-1H-benzoimidazol-2-ylsulfanyl)-ethanone] |  | 1 to 10 µM | toxic (flag beside activity class) [3]: toxic
4 | Cn1c(Cc2cccc3ccccc23)nnc1SCC(=O)Nc1ccc2nc(SCC(=O)N3CCOCC3)sc2c1 [Compound 36, 2-(4-Methyl-5-naphthalen-1-ylmethyl-4H-[1,2,4]triazol-3-ylsulfanyl)-N-[2-(2-morpholin-4-yl-2-oxo-ethylsulfanyl)-benzothiazol-6-yl]-acetamide] |  | > 25 µM | 
5 | O=C(Nc1ccc2nc(SCC(=O)N3CCOCC3)sc2c1)c1ccccc1Br [Compound 20, 2-Bromo-N-[2-(2-morpholin-4-yl-2-oxo-ethylsulfanyl)-benzothiazol-6-yl]-benzamide] | > 25 µM |  | 
6 | Cc1cccc(C)c1NC(=O)Cn1c(SCC(N)=O)nc2ccccc21 [Compound 79, 2-{1-[(2,6-Dimethyl-phenylcarbamoyl)-methyl]-1H-benzoimidazol-2-ylsulfanyl}-acetamide] |  | > 25 µM | 
7 | O=C(O)c1ccc2oc(SCC(=O)N3CCCCC3)nc2c1 [Compound 48, 2-(2-oxo-2-piperidin-1-yl-ethylsulfanyl)-benzooxazole-5-carboxylic acid] | > 25 µM |  | 
8 | CC1CCN(C(=O)CSc2nc3ccccc3[nH]2)CC1 [Compound 44, 2-(1H-Benzoimidazol-2-ylsulfanyl)-1-(4-methyl-piperidin-1-yl)-ethanone] | > 25 µM |  | 
9 | CCC(=O)Nc1ccc2nc(SCC(=O)N3CCCCC3)sc2c1 [Compound 2, N-[2-(2-oxo-2-piperidin-1-yl-ethylsulfanyl)-benzothiazol-6-yl]-propionamide] |  | < 1 µM | 
10 | CCC(=O)Nc1ccc2nc(SCC(=O)N3CCN(c4ccccc4)CC3)sc2c1 [Compound 54, N-{2-[2-oxo-2-(4-phenyl-piperazin-1-yl)-ethylsulfanyl]-benzothiazol-6-yl}-propionamide] | > 25 µM |  | 
11 | CCN(CC)C(=O)CSc1nc2ccccc2n1C(=O)NC1CCCCC1 [Compound 15, 2-Diethylcarbamoylmethylsulfanyl-benzoimidazole-1-carboxylic acid cyclohexylamide] |  | > 25 µM | 
12 | CCCC(=O)Nc1ccc2nc(SCC(=O)N3CCN(c4ccccc4)CC3)sc2c1 [Compound 75, N-{2-[2-oxo-2-(4-phenyl-piperazin-1-yl)-ethylsulfanyl]-benzothiazol-6-yl}-butyramide] | > 25 µM |  | 
13 | O=C(CSc1nc2ccc(/N=C/c3ccc(Cl)cc3)cc2s1)N1CCOCC1 [Compound 18, 2-(6-{[1-(4-Chloro-phenyl)-meth-(E)-ylidene]-amino}-benzothiazol-2-ylsulfanyl)-1-morpholin-4-yl-ethanone] |  | > 25 µM | 
14 | O=C1CC(N2CCN(c3nc4ccccc4s3)CC2)C(=O)N1c1ccc(F)cc1 (centres unmarked) [Compound 60, 3-(4-Benzothiazol-2-yl-piperazin-1-yl)-1-(4-fluoro-phenyl)-pyrrolidine-2,5-dione] | > 25 µM |  | 
15 | O=C(Nc1ccc2nc(SCC(=O)N3CCCC3)sc2c1)c1ccccc1Br [Compound 65, 2-Bromo-N-[2-(2-oxo-2-pyrrolidin-1-yl-ethylsulfanyl)-benzothiazol-6-yl]-benzamide] |  | > 25 µM | 
16 | NC(=O)c1ncn([C@@H]2O[C@H](CO)[C@@H](O)[C@H]2O)n1 [ribavirin] |  |  | adverse effects induced (dengue [4]; animal model not specified in the sentence (mouse or rhesus monkey)): induced anemia and thrombocytosis; protection against dengue (dengue [4]; rhesus monkey model): did not show protection against dengue; protection against dengue (dengue [5]): did not show protection against dengue
17 | O=C(Nc1ccc2nc(SCC(=O)N3CCOCC3)sc2c1)c1ccc(Cl)c(Cl)c1 [Compound 29, 3,4-Dichloro-N-[2-(2-morpholin-4-yl-2-oxo-ethylsulfanyl)-benzothiazol-6-yl]-benzamide] |  | > 25 µM | 
18 | O=C(CSc1nc2ccccc2s1)N1CCN(C(c2ccccc2)c2ccccc2)CC1 [Compound 72, 1-(4-Benzhydryl-piperazin-1-yl)-2-(benzothiazol-2-ylsulfanyl)-ethanone] |  | > 25 µM | 
19 | O=C(CSc1nc2ccc(/N=C/c3ccc(Sc4nnnn4-c4ccccc4)o3)cc2s1)N1CCOCC1 [Compound 23, 1-Morpholin-4-yl-2-(6-{[1-[5-(1-phenyl-1H-tetrazol-5-ylsulfanyl)-furan-2-yl]-meth-(E)-ylidene]-amino}-benzothiazol-2-ylsulfanyl)-ethanone] |  | > 25 µM | 
20 | O=C(CSc1nc2ccccc2s1)N1CCN(c2nc3ccccc3s2)CC1 [Compound 50, 1-(4-Benzothiazol-2-yl-piperazin-1-yl)-2-(benzothiazol-2-ylsulfanyl)-ethanone] |  | > 25 µM | 
21 | Nc1ccc2nc(SCC(=O)N3CCN(Cc4ccccc4)CC3)sc2c1 [Compound 10, 2-(6-Amino-benzothiazol-2-ylsulfanyl)-1-(4-benzyl-piperazin-1-yl)-ethanone] |  | 1 to 10 µM | 
